Test results reported in patent US6413908B1, “Agrochemical surfactant compositions” (Imperial Chemical Industries plc, priority 1997, dated 2002).

Tests used:
Galium aparine [1] = assay: Field test, triasulfuron plus adjuvants against weeds in winter wheat; format: in vivo; settings: triasulfuron 25 g.ha^−1, adjuvant 0.1% by weight or none; visual, percentage of plants affected, 5 weeks after treatment
Experimental: (§1) Field tests were carried out on test plots using a completely randomised block design with 4 replicates. […] In such a situation, it is an important benefit if the herbicide can limit the growth of the weeds (inhibition) e.g. by use of an adjuvant. In this Example, the effect of adjuvants on the activity of triasulfuron against G aparine and V hederifolia growing naturally as weeds in winter wheat was examined. […] G aparine and V hederifolia were used in evaluating herbicidal activity because of their regular distribution. […] The results of the runs using no adjuvant and those for combined adjuvants and herbicide are set out in Table 1 below.

Veronica hederifolia [2] = assay: as above; format: in vivo; settings: triasulfuron 25 g.ha^−1, adjuvant 0.1% by weight or none; visual, percentage of plants affected, 5 weeks after treatment
Experimental: as §1

Veronica hederifolia [3] = settings: background statement, no adjuvant; cited from earlier work
Galium aparine [4] = settings: background statement, no adjuvant; cited from earlier work
Veronica hederffolia = assay: Field test, Cameo (tribenuron-methyl) plus adjuvants in winter wheat, growth reduction; format: in vivo; settings: spray 0.015% tribenuron-methyl, 0.1% adjuvant in tank mix or none
Experimental: Field tests were carried out on test plots using a completely randomised block design with 4 replicates. The spray volume used was 300 I.ha^−1.
The spray solution contained 0.015% by weight tribenuronethyl and 0.1% adjuvant added to the tank mix. The effectiveness of the herbicides was assessed visually by the % growth reduction of the weeds as compared with untreated weeds.

| Molecule | Chlorosis, Galium aparine (5 weeks) (Galium aparine [1]) | Inhibition, Galium aparine (5 weeks) (Galium aparine [1]) | Necrosis, Galium aparine (5 weeks) (Galium aparine [1]) | Chlorosis, Veronica hederifolia (5 weeks) (Veronica hederifolia [2]) | Inhibition, Veronica hederifolia (5 weeks) (Veronica hederifolia [2]) | Necrosis, Veronica hederifolia (5 weeks) (Veronica hederifolia [2]) | known activity against ivy-leaved speedwell (Veronica hederifolia) (Veronica hederifolia [3]) | known activity against cleavers (Galium aparine) (Galium aparine [4]) | Inhibition (%), growth reduction of the weeds as compared with untreated weeds (Veronica hederffolia) |
| --- | --- | --- | --- | --- | --- | --- | --- | --- | --- |
| COc1nc(C)nc(NC(=O)NS(=O)(=O)c2ccccc2OCCCl)n1 [triasulfuron] | 30% | 50% | 10% | 10% | 40% | 10% | limited activity | limited activity |  |
| nonyl phenol 8-ethoxylate [NP8] | 30% | 40% | 10% | 40% | 60% | 30% |  |  | 33% |
